Assay [1] deals with T1, BRPF1 bromodomain (Homo sapiens, UniProt P55201).
T1 sequence (P55201 629-742): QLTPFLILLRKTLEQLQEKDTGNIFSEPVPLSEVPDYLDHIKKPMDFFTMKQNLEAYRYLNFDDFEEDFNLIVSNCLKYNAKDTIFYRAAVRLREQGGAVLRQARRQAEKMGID
The assay can be described thus: NMR titration. It is filed as binding.

Assay [2] concerns the target T1, BRPF1 bromodomain. The assay can be described thus: Isothermal titration calorimetry. It is filed as binding. (In general: ITC needs no label: the signal is the heat of the interaction.)
The target of assay [3] is T2, Histone H2AK5ac peptide (1-12) (Homo sapiens).
T2 chain: SGRGK(Ac)QGGKARA
The assay can be described thus: NMR titration.

Assay [4] deals with T3, Histone H4K8ac peptide (4-17) (Homo sapiens, H4 K8 acetylated).
T3 chain: GKGGKGLGKGGAKR
The assay can be described thus: NMR titration.

The target in assay [5] is T4, Histone H3K14ac peptide (8-19) (Homo sapiens).
T4 chain: RKSTGGK(Ac)APRKQ
As to the kind of experiment: NMR titration.

The target of assay [6] is T5, Histone H4K12ac peptide (4-17) (Homo sapiens).
T5 chain: GKGGKGLGK(Ac)GGAKR
As to the kind of experiment: NMR titration.

Data on five molecules can be found in PMC3969779 (Journal of molecular biology, 2013).

Ends that are not written are not given here.

For orientation: Kd means the equilibrium constant for the complex coming apart. Low values mean tighter binding, high ones weaker binding.

On to `CC(=O)NCCCC[C@H](NC(=O)CNC(=O)CNC(=O)[C@@H](NC(=O)[C@H](CO)NC(=O)[C@H](CCCCN)NC(=O)[C@@H](N)CCCNC(=N)N)[C@@H](C)O)C(=O)N[C@@H](C)C(=O)N1CCC[C@H]1C(=O)N[C@@H](CCCNC(=N)N)C(=O)N[C@@H](CCCCN)C(=O)N[C@@H](CCC(N)=O)C(N)=O` [H3K14ac (8-19)], for which the equilibrium dissociation constant (Kd) in assay [1] came to 597 ± 53 µM; in assay [2], 626 ± 27 µM.

In turn, `CC(=O)NCCCC[C@H](NC(=O)CNC(=O)CNC(=O)[C@H](CCCCN)NC(=O)CN)C(=O)NCC(=O)N[C@@H](CC(C)C)C(=O)NCC(=O)N[C@@H](CCCCN)C(=O)NCC(=O)NCC(=O)N[C@@H](C)C(=O)N[C@@H](CCCCN)C(=O)N[C@@H](CCCNC(=N)N)C(N)=O` [H4K8ac (4-17)] registered a Kd in assay [1] of 697 ± 57 µM.

On to `CC(=O)NCCCC[C@H](NC(=O)CNC(=O)[C@H](CC(C)C)NC(=O)CNC(=O)[C@H](CCCCN)NC(=O)CNC(=O)CNC(=O)[C@H](CCCCN)NC(=O)CN)C(=O)NCC(=O)NCC(=O)N[C@@H](C)C(=O)N[C@@H](CCCCN)C(=O)N[C@@H](CCCNC(=N)N)C(N)=O` [H4K12ac (4-17)], for which the Kd in assay [1] is 74 ± 18 µM; in assay [2], 86.5 ± 9.1 µM.

Regarding SGRGK(Ac)QGGKARA-NH2 [H2AK5ac (1-12)], the Kd worked out at 57 ± 4 µM in assay [1] and 48.5 ± 1.5 µM in assay [2].

B1: BRPF1 bromodomain 629-742 (protein)
chain: QLTPFLILLRKTLEQLQEKDTGNIFSEPVPLSEVPDYLDHIKKPMDFFTMKQNLEAYRYLNFDDFEEDFNLIVSNCLKYNAKDTIFYRAAVRLREQGGAVLRQARRQAEKMGID
With B1, the Kd in assay [3] was determined as 57 µM; in assay [4], 697 µM; in assay [5] it was 597 µM; in assay [6], 74 µM.
